Reference: patent publication US20140349924A1 (Novo Nordisk A/S, priority 2007, published 2014)

Tests used:
[1] = freshly excised rat gut sacs (small intestine) incubated in culture medium pH 7.4; settings: 37° C, up to 2 h
[2] = freeze dried from aqueous solutions with pH moved below the isoelectric point; cited from earlier work
[3] = 293.2 Kelvin; static electric fields or relatively low frequencies; cited from earlier work

Asp^B28 human insulin
fragment found [1]: degradation product (peak ˜5218), 2 h

lysozyme: lysozyme lyophilized from aqueous solution, literature example (Klibanov et al)
Solubility in 1,5 pentanediol [2]: markedly increased

CO [Methanol]
Dielectricity constant, ε* [3]: 33.0
